Data from patent US20030082135A1, “Pathway of RANTES-mediated chemokine synthesis in astrocytes and methods of use therefor” (priority 2001, published 2003).

Experiments:
[1] = tested on: MEK, ERK1/2, p90RSK, p38, SAPK/JNK phosphorylation in astrocytes; assay: Western blotting of phosphorylated MAP kinase pathway proteins in astrocyte lysates; format: cell-based, mouse
Experimental: SDS-PAGE and Western blotting. Astrocytes were treated for the indicated time with media or 100 ng/ml RANTES, eotaxin, or other materials as indicated. Cells (3×10^5 in Examples 1-3, or 2×10^4 in later Examples) were resuspended in 100 μl buffer (50 mM HEPES, pH 7.5, 150 mM NaCl, 2 mM EDTA, 2 mM EGTA, 1% Triton X-100, 50 mM Sodium fluoride, 5 mM Sodium pyrophosphate, 50 mM Sodium β-glycerophosphate, 1 mM Sodium Ortho-vanadate, 1 mM DTT, 1 mM PMSF, 10 μg/ml Leupeptin, and 10 μg/ml Aprotinin). Protein concentration of the whole cell extract was determined by BCA protein assay kit (Pierce, Rockford, Ill.). Samples (10 μg) were loaded and separated on a 10% SDS-polyacrylamide gel. After transfer to Hybond ECL nitrocellulose membrane (Amersham Pharmacia Biotech Inc, Piscataway, N.J.) or Zeta-probe blotting membranes (Bio-Rad, Richmond Calif.) blots were blocked overnight with 5% BSA at 4° C., and probed with the antibody indicated. Antibody against unphosphorylated or phosphorylated erk (Cell Signaling, Beverly, Mass.) was used at 1 μg/ml. Appropriate anti-immunoglobulin reagents were used to develop the blots by enhanced chemiluminescence (Amersham Pharmacia Biotech Inc, Piscataway, N.J.).
Little is known about the signaling mechanisms involved in astrocyte respones to chemokines. To examine components of the RANTES signal transduction pathway, phosphorylation of the MAP kinase kinase (MEK) and mitogen activated protein (MAP) kinases was examined. To minimize basal kinase activity, astrocytes were starved of serum for at least 3 h before treatment with chemokine. Whole cell lysates were separated by SDS-PAGE and examined by Western blot. Antibodies that specifically react with phosphorylated MEK or phosphorylated extracellular signal-related kinase (ERK) were used to detect the active kinases.

murine KC promoter = assay: KC promoter luciferase reporter in transfected astrocytes; format: cell-based, mouse; conditions: 100 ng/ml RANTES, 24 h
Description: Plasmids, transient transfection, and luciferase activity assay. The KC reporter plasmid was constructed by using a luciferase reporter gene pGL-3 basic vector (Promega, Madison, Wis.) driven by mouse KC promoter (−2878/+43). Wild-type p90RSK expression (WT pKH3) and dominant negative p90RSK expression (ΔΔ RSK pKH3) plasmids were obtained from Dr. John Blenis, Harvard Medical School. Astrocytes were transiently transfected with Lipofectamine 2000 reagent (Life Technologies, Gaithersburg, Md.) according to the manufacturer's protocol. After 24 h, the cells were stimulated with RANTES in absence or presence of the indicated inhibitor, and luciferase activity was determined after an additional 24 h, by the procedure according to the manufacturer (Promega, Madison, Wis.). Relative luciferase activity was normalized for cell lysate protein concentration as determined by BCA protein assay kit (Pierce, Rockford, Ill.). The Relative Fold Induction is the relative intensity of the experimental sample divided by the relative intensity of the medium control.
To establish whether RANTES up-regulation of chemokine production is mediated by activation of promoter elements, primary astrocyte cultures were transiently transfected with a murine KC promoter-luciferase construct, and reporter activity was monitored after RANTES treatment.

[2] = tested on: intracellular cAMP in astrocytes; assay: Intracellular cAMP in astrocytes (EIA); format: cell-based, mouse
Experimental: FIG. 8 is a set of bar graphs showing that RANTES reduced intracellular cAMP accumulation in astrocytes. Panel A. Astrocytes were treated with the indicated doses of RANTES or TCA4 for 5 min. Intracellular cAMP was detected as described in Materials and Methods. Values represent the mean±S.E.M of triplicate experiments. Panel B. Kinetics of intracellular cAMP levels. Astrocytes were treated with 100 ng/ml RANTES for indicated times. Panel C. RANTES inhibited forskolin-induced intracellular cAMP accumulation. Astrocytes were pretreated with 1 μM forskolin for 1 h then stimulated with the indicated amount of RANTES for 5 min. Intracellular cAMP was determined by EIA. Values are presented as relative cAMP level and represent the mean±S.E.M. of triplicate experiments.
To further elucidate the RANTES-mediated signaling pathway in astrocytes, intracellular cAMP levels were evaluated following chemokine stimulation. Primary mouse astrocytes were incubated with the indicated dose of RANTES or the negative control chemokine, TCA4 for 5 min and monitored for cAMP levels. RANTES (100 ng/ml) decreased intracellular cAMP levels by 68% in a dose dependent fashion (FIG. 8A).

[3] = tested on: cultured mouse astrocytes; assay: RT-PCR for KC message in astrocytes; format: cell-based
[4] = tested on: phosphorylated RSK in astrocytes; assay: Immunofluorescence of phospho-p90RSK translocation; format: cell-based, mouse; conditions: 100 ng/ml RANTES, 5 or 20 min
Experimental: Immunofluorescence. Astrocytes were grown on glass coverslips for a day; the cells were then serum-starved for three hours. Astrocytes were treated with RANTES for 5 or 20 minutes. Following treatment, cells were fixed in −20° C. methanol, permeabilized in ice-cold 0.2% Triton X-100 in PBS and incubated with phospho-p90RSK (Thr360/Ser364) antibody overnight at 4° C., followed by incubation with Alexa Fluor 555 goat anti-rabbit IgG (Molecular Probes, Eugene, Oreg.). Nuclei were stained with Hoechst 33258 (1:2000) for 5 min; coverslips were mounted on slides using the ProLong Antifade Kit (Molecular Probes, Eugene, Oreg.). Slides were stored at room temperature in the dark until observation.
The ability of RANTES to induce nuclear translocation of RSK was examined.

GFAP in astrocytes = assay: Immunofluorescence of GFAP in astrocytes; format: cell-based, mouse; conditions: 100 ng/ml RANTES for 1-5 days
Experimental: Astrocytes associated with Alzheimer's Disease, MS and EAE lesions frequently display increased levels of the intracellular marker GFAP, an indicator of astrogliosis (Xu et al., 1999. Glia 25:390-403). To determine if chemokines could modulate GFAP expression astrocytes were treated with 100 ng/ml RANTES for 1-5 days and then examined for the intracellular marker GFAP by conventional immunofluorescence. Evidence for modulation of GFAP was not observed.

astrocytes = assay: ELISA of KC, TNF-α and MCP-1 protein in astrocyte culture supernatants; format: cell-based, mouse; conditions: 48 h, 1.5 to 100 ng/ml tested

stimulation of KC promoter-luciferase reporter activity (murine KC promoter): about four
Substance: RANTES
duration of phosphorylation of MEK, ERK1 and ERK2 ([1]; 100 ng/ml RANTES): over 2 h
duration of phosphorylation of RSK ([1]; 100 ng/ml RANTES): over 2 h
phosphorylation state of Raf-1 Ser 259 ([1]; 100 ng/ml RANTES): dephosphorylation
time of appearance of phosphorylation of MEK, ERK1 and ERK2 ([1]; 100 ng/ml RANTES): ≤ 5 min
time of peak phosphorylation of MEK, ERK1 and ERK2 ([1]; 100 ng/ml RANTES): 20 to 60 min
time of peak phosphorylation of RSK ([1]; 100 ng/ml RANTES): 60 min
time of appearance of phosphorylation of RSK ([1]; 100 ng/ml RANTES, Ser381, Thr360/Ser364, Thr574): ≤ 5 min
phosphorylation of p38 or SAPK/JNK ([1]; 100 ng/ml, 20 min, 5 to 120 min): failed to phosphorylate
time within which intracellular cAMP was dramatically decreased ([2]; 100 ng/ml RANTES): ≤ 1 min
decrease of intracellular cAMP levels ([2]; 100 ng/ml, 5 min): 68%
effect on forskolin-induced cAMP accumulation ([2]; 1 μM forskolin 1 h, then RANTES 5 min): inhibited forskolin-induced cAMP accumulation in a dose dependent manner
synthesis of KC message [3]: induce synthesis of KC message
nuclear translocation of phosphorylated RSK [4]: nuclear translocation was noted at 5 min
modulation of GFAP (GFAP in astrocytes): not observed
concentration inducing KC protein (astrocytes): ≥ 10 ng/mL
